Assay results published in US12077503B2, “Substituted cyclic amides and their use as herbicides” (FMC CORPORATION, priority 2015, dated 2024).

Legend:
Type in all cases: in vivo
[1] = tested on: giant foxtail (Setaria faberi); assay: Test G Post-Emergence Protocol; conditions: Setaria faberi, post-emergence, 312 h, read-out: Foxtail, Giant damage rating; for pest or weed control at 15.625 g/ha: 15.625 g ai/ha, evaluated after 13 days (100=total damage to plant; 0=no damage to plant); for pest or weed control at 62.5 g/ha: 62.5 g ai/ha, evaluated after 13 days, 100=total damage to plant, 0=no damage to plant
Outline: (§1)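 Pot-grown seedlings, 8 days old, raised in a glasshouse at 24/16 °C day/night with 14 h light and 65% humidity, were sprayed post-emergence with test compound in acetone/water (50:50) plus 0.5% Tween 20 at 15.625, 62.5 or 250 g/ha. Damage was scored visually 13 days later on a 0–100 scale (100 = total damage).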

[2] = tested on: barnyardgrass (Echinochloa crus-galli); assay: Test G Post-Emergence Protocol; conditions: Echinochloa crus-galli, post-emergence, 312 h, read-out: Barnyardgrass damage rating; for pest or weed control at 15.625 g/ha: 15.625 g ai/ha, evaluated after 13 days (100=total damage to plant; 0=no damage to plant); for pest or weed control at 62.5 g/ha: 62.5 g ai/ha; for pest or weed control at 62.5 g/ha / pest or weed control at 250 g/ha: evaluated after 13 days, 100=total damage to plant, 0=no damage to plant; for pest or weed control at 250 g/ha: 250 g ai/ha
Outline: as §1

[3] = tested on: corn (Zea mays); assay: Test G Post-Emergence Protocol; conditions: Zea mays, post-emergence, 312 h, read-out: Corn damage rating; for plant injury at 15.625 g/ha: 15.625 g ai/ha, evaluated after 13 days (100=total damage to plant; 0=no damage to plant); for plant injury at 62.5 g/ha: 62.5 g ai/ha; for plant injury at 62.5 g/ha / plant injury at 250 g/ha: evaluated after 13 days, 100=total damage to plant, 0=no damage to plant; for plant injury at 250 g/ha: 250 g ai/ha
Outline: as §1

[4] = tested on: velvetleaf (Abutilon theophrasti); assay: Test G Post-Emergence Protocol; conditions: Abutilon theophrasti, post-emergence, 312 h, read-out: Velvetleaf damage rating; for pest or weed control at 15.625 g/ha: 15.625 g ai/ha, evaluated after 13 days (100=total damage to plant; 0=no damage to plant); for pest or weed control at 62.5 g/ha: 62.5 g ai/ha; for pest or weed control at 62.5 g/ha / pest or weed control at 250 g/ha: evaluated after 13 days, 100=total damage to plant, 0=no damage to plant; for pest or weed control at 250 g/ha: 250 g ai/ha
Outline: as §1

[5] = tested on: ivy-leaved morning glory (Ipomoea hederacea); assay: Test G Post-Emergence Protocol; conditions: Ipomoea, post-emergence, 312 h, read-out: Morningglory, Ivy-leaved damage rating; for pest or weed control at 15.625 g/ha: 15.625 g ai/ha, evaluated after 13 days (100=total damage to plant; 0=no damage to plant); for pest or weed control at 62.5 g/ha: 62.5 g ai/ha; for pest or weed control at 62.5 g/ha / pest or weed control at 250 g/ha: evaluated after 13 days, 100=total damage to plant, 0=no damage to plant; for pest or weed control at 250 g/ha: 250 g ai/ha
Outline: as §1

[6] = tested on: redroot pigweed (Amaranthus retroflexus); assay: Test G Post-Emergence Protocol; conditions: Amaranthus retroflexus, post-emergence, 312 h, read-out: Pigweed, Redroot damage rating; for pest or weed control at 15.625 g/ha: 15.625 g ai/ha, evaluated after 13 days (100=total damage to plant; 0=no damage to plant); for pest or weed control at 62.5 g/ha: 62.5 g ai/ha; for pest or weed control at 62.5 g/ha / pest or weed control at 250 g/ha: evaluated after 13 days, 100=total damage to plant, 0=no damage to plant; for pest or weed control at 250 g/ha: 250 g ai/ha
Outline: as §1

[7] = tested on: giant foxtail (Setaria faberi); assay: Test G Pre-Emergence Protocol; conditions: Setaria faberi, pre-emergence, 312 h, evaluated after 13 days; for pest or weed control at 15.625 g/ha: 15.625 g ai/ha; for pest or weed control at 15.625 g/ha / pest or weed control at 250 g/ha: read-out: Foxtail, Giant damage rating (100=total damage to plant; 0=no damage to plant); for pest or weed control at 62.5 g/ha: 62.5 g ai/ha, 100=total damage to plant, 0=no damage to plant, read-out: Foxtail, Giant damage rating; for pest or weed control at 250 g/ha: 250 g ai/ha
Outline: (§2)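 Visual injury (0–100) at day 13 after a single pre-emergence spray. Rates: 15.625, 62.5, 250 g/ha in acetone–water 50:50 with 0.5% Tween 20. Growth conditions: 24/16° C, 14 h light, 65% humidity.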

[8] = tested on: barnyardgrass (Echinochloa crus-galli); assay: Test G Pre-Emergence Protocol; conditions: Echinochloa crus-galli, pre-emergence, 312 h, evaluated after 13 days; for pest or weed control at 15.625 g/ha: 15.625 g ai/ha; for pest or weed control at 15.625 g/ha / pest or weed control at 250 g/ha: read-out: Barnyardgrass damage rating (100=total damage to plant; 0=no damage to plant); for pest or weed control at 62.5 g/ha: 62.5 g ai/ha, 100=total damage to plant, 0=no damage to plant, read-out: Barnyardgrass damage rating; for pest or weed control at 250 g/ha: 250 g ai/ha
Outline: as §2

[9] = tested on: corn (Zea mays); assay: Test G Pre-Emergence Protocol; conditions: Zea mays, pre-emergence, 312 h, evaluated after 13 days; for plant injury at 15.625 g/ha: 15.625 g ai/ha; for plant injury at 15.625 g/ha / plant injury at 250 g/ha: read-out: Corn damage rating (100=total damage to plant; 0=no damage to plant); for plant injury at 62.5 g/ha: 62.5 g ai/ha, 100=total damage to plant, 0=no damage to plant, read-out: Corn damage rating; for plant injury at 250 g/ha: 250 g ai/ha
Outline: as §2

[10] = tested on: velvetleaf (Abutilon theophrasti); assay: Test G Pre-Emergence Protocol; conditions: Abutilon theophrasti, pre-emergence, 312 h, evaluated after 13 days; for pest or weed control at 15.625 g/ha: 15.625 g ai/ha; for pest or weed control at 15.625 g/ha / pest or weed control at 250 g/ha: read-out: Velvetleaf damage rating (100=total damage to plant; 0=no damage to plant); for pest or weed control at 62.5 g/ha: 62.5 g ai/ha, 100=total damage to plant, 0=no damage to plant, read-out: Velvetleaf damage rating; for pest or weed control at 250 g/ha: 250 g ai/ha
Outline: as §2

[11] = tested on: ivy-leaved morning glory (Ipomoea hederacea); assay: Test G Pre-Emergence Protocol; conditions: Ipomoea, pre-emergence, 312 h, evaluated after 13 days; for pest or weed control at 15.625 g/ha: 15.625 g ai/ha; for pest or weed control at 15.625 g/ha / pest or weed control at 250 g/ha: read-out: Morningglory, Ivy-leaved damage rating (100=total damage to plant; 0=no damage to plant); for pest or weed control at 62.5 g/ha: 62.5 g ai/ha, 100=total damage to plant, 0=no damage to plant, read-out: Morningglory, Ivy-leaved damage rating; for pest or weed control at 250 g/ha: 250 g ai/ha
Outline: as §2

[12] = tested on: redroot pigweed (Amaranthus retroflexus); assay: Test G Pre-Emergence Protocol; conditions: Amaranthus retroflexus, pre-emergence, 312 h, evaluated after 13 days; for pest or weed control at 15.625 g/ha: 15.625 g ai/ha; for pest or weed control at 15.625 g/ha / pest or weed control at 250 g/ha: read-out: Pigweed, Redroot damage rating (100=total damage to plant; 0=no damage to plant); for pest or weed control at 62.5 g/ha: 62.5 g ai/ha, 100=total damage to plant, 0=no damage to plant, read-out: Pigweed, Redroot damage rating; for pest or weed control at 250 g/ha: 250 g ai/ha
Outline: as §2

Compound	pest or weed control at 15.625 g/ha [1]	pest or weed control at 62.5 g/ha [1]	pest or weed control at 15.625 g/ha [2]	pest or weed control at 62.5 g/ha [2]	pest or weed control at 250 g/ha [2]	plant injury at 15.625 g/ha [3]	plant injury at 62.5 g/ha [3]	plant injury at 250 g/ha [3]	pest or weed control at 15.625 g/ha [4]	pest or weed control at 62.5 g/ha [4]	pest or weed control at 250 g/ha [4]	pest or weed control at 15.625 g/ha [5]	pest or weed control at 62.5 g/ha [5]	pest or weed control at 250 g/ha [5]	pest or weed control at 15.625 g/ha [6]	pest or weed control at 62.5 g/ha [6]	pest or weed control at 250 g/ha [6]	pest or weed control at 15.625 g/ha [7]	pest or weed control at 62.5 g/ha [7]	pest or weed control at 250 g/ha [7]	also measured
CCOc1cc([C@@H]2CN(C)C(=O)[C@H]2C(=O)Nc2cccc(F)c2C)ccc1C(F)(F)F (racemic) [Compound 1787]	40%	70%	20%	60%	60%	30%	50%	60%	20%	20%	40%	50%	70%	70%	20%	20%	70%	60%	70%	90%	pest or weed control at 15.625 g/ha [8]: 50%; pest or weed control at 62.5 g/ha [8]: 60%; pest or weed control at 250 g/ha [8]: 90%; plant injury at 15.625 g/ha [9]: 20%; plant injury at 62.5 g/ha [9]: 20%; plant injury at 250 g/ha [9]: 40%; pest or weed control at 15.625 g/ha [10]: 0%; pest or weed control at 62.5 g/ha [10]: 10%; pest or weed control at 250 g/ha [10]: 20%; pest or weed control at 15.625 g/ha [11]: 0%; pest or weed control at 62.5 g/ha [11]: 0%; pest or weed control at 250 g/ha [11]: 20%; pest or weed control at 15.625 g/ha [12]: 0%; pest or weed control at 62.5 g/ha [12]: 0%; pest or weed control at 250 g/ha [12]: 20%
CN1C[C@H](c2cccc(C(F)(F)F)c2)[C@@H](C(=O)Nc2ccc(O)cc2F)C1=O (racemic) [Compound 1785]	0%	0%	0%	0%	0%	0%	0%	0%	0%	0%	0%	0%	0%	0%	0%	0%	0%	0%	0%	10%	pest or weed control at 15.625 g/ha [8]: 0%; pest or weed control at 62.5 g/ha [8]: 0%; pest or weed control at 250 g/ha [8]: 0%; plant injury at 15.625 g/ha [9]: 0%; plant injury at 62.5 g/ha [9]: 0%; plant injury at 250 g/ha [9]: 0%; pest or weed control at 15.625 g/ha [10]: 0%; pest or weed control at 62.5 g/ha [10]: 0%; pest or weed control at 250 g/ha [10]: 0%; pest or weed control at 15.625 g/ha [11]: 0%; pest or weed control at 62.5 g/ha [11]: 0%; pest or weed control at 250 g/ha [11]: 0%; pest or weed control at 15.625 g/ha [12]: 0%; pest or weed control at 62.5 g/ha [12]: 0%; pest or weed control at 250 g/ha [12]: 20%
